Laboratory results: patent US9956187B2 (priority 2014, dated 2018)
“Also recorded” adds a separate entry of the source.

How the values were obtained:
[1] = molecular target: T1, norepinephrine transporter (NET) (Homo sapiens, UniProt P23975); assay: Secondary radioligand binding assay (affinity); details: FIG. 10A
T1 construct: expressed in transfected cells
Protocol: The secondary binding assay was performed only when the inhibition in the primary screen was over 50%. A secondary binding assay was utilized to determine the binding affinity for the identified receptor.
50 μL of a crude membrane fraction of cells expressing the respective receptors were applied to each well. Reaction incubation, harvesting and radioactivity measurement from the primary assay were repeated. Affinity is expressed as pKi (−log Ki).

human cloned SERT = molecular target: T2, human cloned SERT (Homo sapiens, UniProt P31645); assay: Serotonin reuptake assay in HEK 293 cells; format: cell-based; details: mean±SE
T2 construct: expressed in transfected cells
Protocol: In brief, Human Embryonic Kidney 293 cells were plated in Poly-L-Lys (PLL) coated 384-well black clear bottom cell culture plates in DMEM+1% dFBS, at a density of 15,000 cells per well in a total volume of 40 μl. The cells were incubated for a minimum of 6 hours before use in the assays. The medium was removed and 20 μL of assay buffer (20 mM HEPES, 1×HBSS, pH 7.40) was added, followed by 5 μL of 5× drug solutions. The plate was incubated at 37° C. for 30 min. After the incubation, 25 μL of dye solution was added and fluorescence intensity was measured after […] at 37° C., using FlexStation II (bottom read mode, Excitation at 440 nm, Emission at 520 nm with 510 nm cut-off) from the Molecular Devices. […] The half maximal inhibitory concentration were determined and expressed as pIC50 (pIC50=−log (IC50)).

Sigma 1 = Sigma 1 (Homo sapiens, UniProt Q99720); assay: Primary radioligand binding screen; design: expressed in transfected cells; details: primary binding, Sigma 1; dezocine 10 μM
Protocol: (§1) Evidence for interaction was based on the inhibition of the reference ligand-binding signal. […] Briefly, 50 μL aliquots of radioactive ligand (5 nM) were added to wells of a 96-well plate, which contained 25 μL of the reference or test ligands. We employed transfected cell lines expressing mainly human (unless otherwise specified) recombinant receptors, monoamine transporters, or ion channels for crude membrane preparation. Detailed information about our membrane preparation is well known in the art and can be obtained from publicly available protocol online. Crude membrane fractions containing the receptors were resuspended in standard binding buffer and 50 μL aliquots added to each well. The reactions were incubated at room temperature for 1.5 hours to allow for radioligand binding equilibration. Bound radioactivity was harvested by rapid filtration through a 0.3% polyethyleneimine-treated, 96-well filter mats using a 96-well Filtermate harvester. The dried filters were treated with melted scintillant and a Microbeta scintillation counter was utilized to measure the radioactivity retained on the filter.

5-HT1B = molecular target: T3, 5-HT1B (Homo sapiens, UniProt P28222); assay: Primary radioligand binding screen; details: primary binding, 5-HT1B; dezocine 10 μM
T3 construct: expressed in transfected cells
Protocol: as §1

D2 = molecular target: T4, D2 (Homo sapiens, UniProt P14416); assay: Primary radioligand binding screen; details: primary binding, D2; dezocine 10 μM
T4 construct: expressed in transfected cells
T4 sequence (P14416 whole entry): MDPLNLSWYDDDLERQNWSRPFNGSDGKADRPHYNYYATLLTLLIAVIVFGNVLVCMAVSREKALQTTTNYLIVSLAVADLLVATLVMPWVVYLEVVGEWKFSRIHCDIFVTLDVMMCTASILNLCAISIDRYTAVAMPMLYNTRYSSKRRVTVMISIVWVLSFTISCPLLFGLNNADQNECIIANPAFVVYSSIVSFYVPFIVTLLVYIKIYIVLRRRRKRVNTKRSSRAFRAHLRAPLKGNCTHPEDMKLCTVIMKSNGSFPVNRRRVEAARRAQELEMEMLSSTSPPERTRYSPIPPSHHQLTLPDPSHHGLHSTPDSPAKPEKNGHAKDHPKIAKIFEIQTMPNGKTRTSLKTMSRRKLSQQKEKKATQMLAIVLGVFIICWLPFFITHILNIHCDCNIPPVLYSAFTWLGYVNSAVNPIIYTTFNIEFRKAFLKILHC
Protocol: as §1

D5 = molecular target: T5, D5 (Homo sapiens, UniProt P21918); assay: Primary radioligand binding screen; details: primary binding, D5; dezocine 10 μM
T5 construct: expressed in transfected cells
Protocol: as §1

D4 = molecular target: T6, D4 (Homo sapiens, UniProt P21917); assay: Primary radioligand binding screen; details: primary binding, D4; dezocine 10 μM
T6 construct: expressed in transfected cells
T6 sequence (P21917 whole entry): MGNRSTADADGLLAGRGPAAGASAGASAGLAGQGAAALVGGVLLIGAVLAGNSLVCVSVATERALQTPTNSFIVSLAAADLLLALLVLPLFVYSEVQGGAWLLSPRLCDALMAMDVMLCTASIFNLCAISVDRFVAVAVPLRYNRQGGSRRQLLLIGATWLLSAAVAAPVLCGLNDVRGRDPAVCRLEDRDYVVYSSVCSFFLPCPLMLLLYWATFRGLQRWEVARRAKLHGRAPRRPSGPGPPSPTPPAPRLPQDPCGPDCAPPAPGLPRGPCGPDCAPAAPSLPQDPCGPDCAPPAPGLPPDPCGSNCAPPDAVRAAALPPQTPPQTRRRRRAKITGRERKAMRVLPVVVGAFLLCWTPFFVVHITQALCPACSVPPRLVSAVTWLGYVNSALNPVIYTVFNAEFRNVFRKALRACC
Protocol: as §1

5-HT6 = molecular target: T7, 5-HT6 (Homo sapiens, UniProt P50406); assay: Primary radioligand binding screen; details: primary binding, 5-HT6; dezocine 10 μM
T7 construct: expressed in transfected cells
T7 sequence (P50406 whole entry): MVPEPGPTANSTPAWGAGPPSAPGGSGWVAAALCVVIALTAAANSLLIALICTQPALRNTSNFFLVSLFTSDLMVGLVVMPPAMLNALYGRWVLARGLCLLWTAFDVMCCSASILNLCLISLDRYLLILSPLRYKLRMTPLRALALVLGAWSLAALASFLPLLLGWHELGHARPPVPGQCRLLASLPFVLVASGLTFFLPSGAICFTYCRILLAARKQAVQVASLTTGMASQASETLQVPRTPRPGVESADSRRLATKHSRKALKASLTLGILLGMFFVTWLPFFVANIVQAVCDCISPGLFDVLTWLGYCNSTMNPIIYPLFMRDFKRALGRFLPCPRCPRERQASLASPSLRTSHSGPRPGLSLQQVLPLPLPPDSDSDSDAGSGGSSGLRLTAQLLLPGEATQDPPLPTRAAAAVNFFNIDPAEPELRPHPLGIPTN
Protocol: as §1

M5 = molecular target: T8, M5 (Homo sapiens, UniProt P08912); assay: Primary radioligand binding screen; details: primary binding, M5; dezocine 10 μM
T8 construct: expressed in transfected cells
Protocol: as §1

5-HT1E = molecular target: T9, 5-HT1E (Homo sapiens, UniProt P28566); assay: Primary radioligand binding screen; details: primary binding, 5-HT1E; dezocine 10 μM
T9 construct: expressed in transfected cells
Protocol: as §1

5-HT1A = molecular target: T10, 5-HT1A (Homo sapiens, UniProt P08908); assay: Primary radioligand binding screen; details: primary binding, 5-HT1A; dezocine 10 μM
T10 construct: expressed in transfected cells
Protocol: as §1

Beta2 = molecular target: T11, Beta2 (Homo sapiens, UniProt P07550); assay: Primary radioligand binding screen; details: primary binding, Beta2; dezocine 10 μM
T11 construct: expressed in transfected cells
Protocol: as §1

5-HT2B = molecular target: T12, 5-HT2B (Homo sapiens, UniProt P41595); assay: Primary radioligand binding screen; details: primary binding, 5-HT2B; dezocine 10 μM
T12 construct: expressed in transfected cells
Protocol: as §1

Alpha2C = molecular target: T13, Alpha2C (Homo sapiens, UniProt P18825); assay: Primary radioligand binding screen; details: primary binding, Alpha2C; dezocine 10 μM
T13 construct: expressed in transfected cells
T13 sequence (P18825 whole entry): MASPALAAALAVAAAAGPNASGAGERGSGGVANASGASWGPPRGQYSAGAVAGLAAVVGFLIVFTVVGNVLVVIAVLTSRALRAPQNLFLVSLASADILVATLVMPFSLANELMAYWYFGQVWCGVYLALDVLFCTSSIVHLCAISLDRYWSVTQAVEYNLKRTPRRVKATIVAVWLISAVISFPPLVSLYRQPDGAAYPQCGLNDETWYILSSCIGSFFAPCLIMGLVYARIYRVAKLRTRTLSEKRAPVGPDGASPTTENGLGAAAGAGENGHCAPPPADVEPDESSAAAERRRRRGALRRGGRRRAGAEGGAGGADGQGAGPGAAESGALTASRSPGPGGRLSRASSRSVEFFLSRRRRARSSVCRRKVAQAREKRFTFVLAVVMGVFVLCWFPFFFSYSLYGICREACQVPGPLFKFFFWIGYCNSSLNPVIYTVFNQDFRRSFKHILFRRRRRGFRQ
Protocol: as §1

Alpha1A = molecular target: T14, Alpha1A (Homo sapiens, UniProt P35348); assay: Primary radioligand binding screen; details: primary binding, Alpha1A; dezocine 10 μM
T14 construct: expressed in transfected cells
Protocol: as §1

NET = molecular target: T15, NET (Homo sapiens, UniProt P23975); assay: Primary radioligand binding screen; details: primary binding, NET; dezocine 10 μM
T15 construct: expressed in transfected cells
T15 sequence (P23975 whole entry): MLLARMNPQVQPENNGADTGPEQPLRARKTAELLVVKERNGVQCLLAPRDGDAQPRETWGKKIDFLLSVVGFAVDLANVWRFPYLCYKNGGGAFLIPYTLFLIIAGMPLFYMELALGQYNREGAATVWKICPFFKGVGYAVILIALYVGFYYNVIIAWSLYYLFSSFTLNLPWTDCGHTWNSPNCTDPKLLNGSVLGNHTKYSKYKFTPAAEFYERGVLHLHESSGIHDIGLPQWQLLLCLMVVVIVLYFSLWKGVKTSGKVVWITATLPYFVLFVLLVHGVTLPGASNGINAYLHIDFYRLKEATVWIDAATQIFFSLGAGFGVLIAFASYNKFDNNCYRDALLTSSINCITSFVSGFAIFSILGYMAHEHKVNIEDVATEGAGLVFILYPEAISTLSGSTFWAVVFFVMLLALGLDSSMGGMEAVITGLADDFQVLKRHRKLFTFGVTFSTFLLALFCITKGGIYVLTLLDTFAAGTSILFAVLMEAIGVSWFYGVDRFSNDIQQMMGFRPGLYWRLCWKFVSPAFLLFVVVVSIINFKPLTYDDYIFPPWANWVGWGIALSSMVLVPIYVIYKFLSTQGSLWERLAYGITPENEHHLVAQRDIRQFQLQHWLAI
Protocol: as §1

H3 = molecular target: T16, H3 (Homo sapiens, UniProt Q9Y5N1); assay: Primary radioligand binding screen; details: primary binding, H3; dezocine 10 μM
T16 construct: expressed in transfected cells
Protocol: as §1

5-hT5A = molecular target: T17, 5-hT5A (Homo sapiens, UniProt P47898); assay: Primary radioligand binding screen; details: primary binding, 5-hT5A; dezocine 10 μM
T17 construct: expressed in transfected cells
Protocol: as §1

5-HT7 = molecular target: T18, 5-HT7 (Homo sapiens, UniProt P34969); assay: Primary radioligand binding screen; details: primary binding, 5-HT7; dezocine 10 μM
T18 construct: expressed in transfected cells
Protocol: as §1

Alpha1B = molecular target: T19, Alpha1B (Homo sapiens, UniProt P35368); assay: Primary radioligand binding screen; details: primary binding, Alpha1B; dezocine 10 μM
T19 construct: expressed in transfected cells
Protocol: as §1

Beta3 = molecular target: T20, Beta3 (Homo sapiens, UniProt P13945); assay: Primary radioligand binding screen; details: primary binding, Beta3; dezocine 10 μM
T20 construct: expressed in transfected cells
T20 sequence (P13945 whole entry): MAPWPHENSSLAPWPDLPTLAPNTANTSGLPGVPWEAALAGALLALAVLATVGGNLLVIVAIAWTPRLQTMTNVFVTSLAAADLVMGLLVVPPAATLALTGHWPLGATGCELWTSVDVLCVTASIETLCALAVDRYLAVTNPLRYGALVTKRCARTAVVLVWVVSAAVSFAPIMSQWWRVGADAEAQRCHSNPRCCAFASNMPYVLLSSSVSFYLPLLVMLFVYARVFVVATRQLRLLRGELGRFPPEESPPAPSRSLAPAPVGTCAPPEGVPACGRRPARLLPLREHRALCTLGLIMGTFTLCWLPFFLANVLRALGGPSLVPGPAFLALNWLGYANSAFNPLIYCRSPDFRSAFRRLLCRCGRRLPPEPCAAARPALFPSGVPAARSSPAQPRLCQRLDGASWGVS
Protocol: as §1

H2 = molecular target: T21, H2 (Homo sapiens, UniProt P25021); assay: Primary radioligand binding screen; details: primary binding, H2; dezocine 10 μM
T21 construct: expressed in transfected cells
Protocol: as §1

D3 = molecular target: T22, D3 (Homo sapiens, UniProt P35462); assay: Primary radioligand binding screen; details: primary binding, D3; dezocine 10 μM
T22 construct: expressed in transfected cells
T22 sequence (P35462 whole entry): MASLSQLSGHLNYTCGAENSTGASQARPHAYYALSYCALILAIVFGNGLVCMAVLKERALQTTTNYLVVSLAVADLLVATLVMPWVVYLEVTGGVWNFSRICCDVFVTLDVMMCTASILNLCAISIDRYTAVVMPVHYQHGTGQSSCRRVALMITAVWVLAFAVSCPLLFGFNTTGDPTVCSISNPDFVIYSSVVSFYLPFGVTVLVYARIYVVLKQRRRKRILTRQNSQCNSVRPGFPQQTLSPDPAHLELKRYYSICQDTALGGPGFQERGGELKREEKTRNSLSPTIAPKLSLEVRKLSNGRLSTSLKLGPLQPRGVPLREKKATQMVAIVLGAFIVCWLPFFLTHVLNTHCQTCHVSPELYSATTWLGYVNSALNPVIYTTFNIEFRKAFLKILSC
Protocol: as §1

5-HT2C = molecular target: T23, 5-HT2C (Homo sapiens, UniProt P28335); assay: Primary radioligand binding screen; details: primary binding, 5-HT2C; dezocine 10 μM
T23 construct: expressed in transfected cells
T23 sequence (P28335 33-458): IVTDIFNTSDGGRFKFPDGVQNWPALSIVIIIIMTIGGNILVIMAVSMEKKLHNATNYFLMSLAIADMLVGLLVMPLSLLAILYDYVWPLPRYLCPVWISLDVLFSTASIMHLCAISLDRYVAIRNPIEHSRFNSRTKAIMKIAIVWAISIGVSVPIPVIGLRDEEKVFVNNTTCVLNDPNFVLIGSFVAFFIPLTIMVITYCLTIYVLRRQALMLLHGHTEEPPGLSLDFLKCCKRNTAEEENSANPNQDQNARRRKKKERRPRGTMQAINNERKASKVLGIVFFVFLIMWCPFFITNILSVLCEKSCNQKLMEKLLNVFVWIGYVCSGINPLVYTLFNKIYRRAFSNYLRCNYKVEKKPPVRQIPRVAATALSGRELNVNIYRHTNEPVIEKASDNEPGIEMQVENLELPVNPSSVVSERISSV
Protocol: as §1

Alpha2A = molecular target: T24, Alpha2A (Homo sapiens, UniProt P08913); assay: Primary radioligand binding screen; details: primary binding, Alpha2A; dezocine 10 μM
T24 construct: expressed in transfected cells
T24 sequence (P08913 whole entry): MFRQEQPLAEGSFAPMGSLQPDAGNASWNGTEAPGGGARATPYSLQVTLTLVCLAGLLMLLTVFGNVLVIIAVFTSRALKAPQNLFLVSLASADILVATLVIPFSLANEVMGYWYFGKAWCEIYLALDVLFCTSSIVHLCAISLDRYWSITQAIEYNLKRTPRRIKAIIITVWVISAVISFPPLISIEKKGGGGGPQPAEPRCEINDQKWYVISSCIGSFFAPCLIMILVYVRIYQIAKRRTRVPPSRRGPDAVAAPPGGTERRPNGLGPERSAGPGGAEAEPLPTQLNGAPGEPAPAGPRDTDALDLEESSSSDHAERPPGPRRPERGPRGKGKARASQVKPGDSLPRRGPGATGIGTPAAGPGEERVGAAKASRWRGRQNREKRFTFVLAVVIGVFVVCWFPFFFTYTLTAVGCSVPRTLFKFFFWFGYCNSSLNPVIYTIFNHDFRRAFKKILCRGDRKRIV
Protocol: as §1

5-HT3 = molecular target: T25, 5-HT3 (Homo sapiens, UniProt P46098); assay: Primary radioligand binding screen; details: primary binding, 5-HT3; dezocine 10 μM
T25 construct: expressed in transfected cells
Protocol: as §1

D1 = molecular target: T26, D1 (Homo sapiens, UniProt P21728); assay: Primary radioligand binding screen; details: primary binding, D1; dezocine 10 μM
T26 construct: expressed in transfected cells
T26 sequence (P21728 whole entry): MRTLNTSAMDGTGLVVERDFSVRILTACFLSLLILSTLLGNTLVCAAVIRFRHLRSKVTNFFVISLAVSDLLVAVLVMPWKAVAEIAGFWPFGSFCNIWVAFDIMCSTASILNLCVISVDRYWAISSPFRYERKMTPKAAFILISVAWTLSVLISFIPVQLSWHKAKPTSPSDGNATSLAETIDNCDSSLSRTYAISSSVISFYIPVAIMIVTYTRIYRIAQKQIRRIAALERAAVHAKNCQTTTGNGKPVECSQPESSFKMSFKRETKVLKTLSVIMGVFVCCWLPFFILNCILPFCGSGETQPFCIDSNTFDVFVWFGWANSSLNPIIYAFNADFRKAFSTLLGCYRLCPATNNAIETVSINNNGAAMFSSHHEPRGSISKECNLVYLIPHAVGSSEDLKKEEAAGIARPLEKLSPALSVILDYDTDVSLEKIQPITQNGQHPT
Protocol: as §1

5-HT1D = molecular target: T27, 5-HT1D (Homo sapiens, UniProt P28221); assay: Primary radioligand binding screen; details: primary binding, 5-HT1D; dezocine 10 μM
T27 construct: expressed in transfected cells
Protocol: as §1

kappa opioid receptor = kappa opioid receptor (Homo sapiens, UniProt P41145); format: biochemical; design: purchased Millipore (Billerica, Mass.); host or cells: Chem-5 mammalian cell line
Sequence of kappa opioid receptor (P41145 whole entry): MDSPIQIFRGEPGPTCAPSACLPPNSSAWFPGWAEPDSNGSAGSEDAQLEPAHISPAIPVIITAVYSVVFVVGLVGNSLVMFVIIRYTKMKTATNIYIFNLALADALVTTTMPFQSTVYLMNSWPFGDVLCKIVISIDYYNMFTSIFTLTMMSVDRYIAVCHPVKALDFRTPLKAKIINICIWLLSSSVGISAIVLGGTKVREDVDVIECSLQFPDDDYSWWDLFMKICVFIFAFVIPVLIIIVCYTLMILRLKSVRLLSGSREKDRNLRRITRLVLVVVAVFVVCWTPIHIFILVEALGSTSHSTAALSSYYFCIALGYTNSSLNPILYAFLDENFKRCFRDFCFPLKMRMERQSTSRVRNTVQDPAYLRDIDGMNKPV
From the text: Membrane preparations of recombinant human kappa opioid receptor expressed in the mammalian cell line Chem-5 were obtained from Millipore (Billerica, Mass.). The effects of specific kappa opioid receptor ligands on the activation of the recombinant receptor were investigated by measuring G protein activation in vitro.
The assay reports the initial rates of activation of heterotrimeric G proteins (Gαii1β1γ2) on an agonist-bound receptor by measuring the accumulation of [^35S]-GTPγS (non-hydrolyzable analog of GTP) bound to the activated Gαi1 subunit. […] The G protein activation assay was conducted as follows (final concentrations in 50 μL reaction mixture are given in parentheses): the membrane sample was diluted into ice-cold 10 mM 3-(N-morpholino)propanesulfonic acid (MOPS) buffer to reach a protein concentration of 40 ng/μL. 10 μL of the diluted dispersion were dispensed into pre-siliconized glass tubes and mixed with the ligand in MOPS buffer containing 0.1% (w/v) BSA. Upon addition of a mixture of Gαi1 (100 nM) and Gβ1γ2 (500 nM), the tubes were incubated on ice for 30 minutes. The reaction was started by addition of MOPS buffer pH=7.5 (50 mM), EDTA (1 mM), MgCl2 (3 mM), GDP (4 μM), BSA (0.3% w/v), NaCl (100 mM), DTT (1 mM), and [^35S]-GTPγS (5 nM, 1250 Ci/mmol) followed by rapid transfer of the tubes to a water bath at 30° C. The incubation continued for 45 minutes. The reaction was terminated by addition of 2 mL of ice-cold stop solution, TNMg (20 mM Tris-HCl pH=8.0, 100 mM NaCl, and 25 mM MgCl2). The reaction mixture was rapidly filtered through nitrocellulose filters (Millipore). Filters were washed four times with 2 mL each of cold TNMg buffer, dried, placed in scintillation vials filled with ScintiSafe Econo F scintillation liquid (Fisher, Waltham, Mass.), and the radioactivity counted. Duplicate samples corresponding to every ligand concentration point were counted.

T1 sequence (P23975 whole entry): as the sequence (P23975 whole entry) above

`CN1CC[C@]23c4c5ccc(O)c4O[C@H]2[C@@H](O)C=C[C@H]3[C@H]1C5` [Morphine] was tested. Which “interaction (binding activity) with NET” value [1] did it give?
The value was “No significant binding activity”.

`CNCCC(Oc1ccccc1OC)c1ccccc1` (stereo not drawn) [nisoxetine] was tested. Which “pIC50 of SERT (serotonin reuptake)” value (human cloned SERT) did it give?
Its value is 5.99±0.07.

For `C=CCN1CC[C@]23c4c5ccc(O)c4O[C@H]2C(=O)CC[C@@]3(O)[C@H]1C5` [Naloxone], which “% inhibition” value (Sigma 1) is on record?
The value was 9.6%.

What about the “% inhibition” value (5-HT1B) of the same compound?
Its value is −1%.

And the “% inhibition” value (D2)?
The value was −0.8%.

What about the “% inhibition” value (D5) of the same compound?
The value was 2.1%.

And the “% inhibition” value (D4)?
The value was −5.8%.

And the “% inhibition” value (5-HT6)?
Its value is 27.6%.

And the “% inhibition” value (M5)?
Its value is 32.1%.

What about the “% inhibition” value (5-HT1E) of the same compound?
Its value is −5.7%.

And the “% inhibition” value (5-HT1A)?
Its value is 5.8%.

What about the “% inhibition” value (Beta2) of the same compound?
Its value is −2.6%.

What about the “% inhibition” value (5-HT2B) of the same compound?
Its value is 49.6%.

What about the “% inhibition” value (Alpha2C) of the same compound?
Its value is 22.7%.

What about the “% inhibition” value (Alpha1A) of the same compound?
The value was 4%.

What about the “% inhibition” value (NET) of the same compound?
The value was 43.8%.

What about the “% inhibition” value (H3) of the same compound?
The value was 8.9%.

What about the “% inhibition” value (5-hT5A) of the same compound?
The value was 28.9%.

What about the “% inhibition” value (5-HT7) of the same compound?
Its value is 60.3%.

What about the “% inhibition” value (Alpha1B) of the same compound?
The value was −2%.

What about the “% inhibition” value (Beta3) of the same compound?
The value was −3.1%.

And the “% inhibition” value (H2)?
The value was 57.4%.

And the “% inhibition” value (D3)?
The value was 1.9%.

And the “% inhibition” value (5-HT2C)?
Its value is 21.1%.

And the “% inhibition” value (Alpha2A)?
Its value is 12.9%.

And the “% inhibition” value (5-HT3)?
Its value is 0%.

What about the “% inhibition” value (D1) of the same compound?
The value was 5.5%.

And the “% inhibition” value (5-HT1D)?
Its value is −1.6%.

What about the “interaction (binding activity) with NET” value [1] of the same compound?
Its value is “No significant binding activity”.

How did the “G protein activation in the presence of kappa receptor” value (kappa opioid receptor) turn out when `Oc1ccc2c3c1O[C@H]1c4[nH]c5c(c4C[C@@]4(O)[C@@H](C2)N(CC2CC2)CC[C@]314)C[C@@]1(O)[C@H]2Cc3ccc(O)c4c3[C@@]1(CCN2CC1CC1)[C@H]5O4` [nor-binaltorphimine] was run?
The value was “inverse kappa agonist; also recorded: did not induce G protein activation”.
